Measurements: US9839642B2, “Beta-tetrazolyl-propionic acids as metallo-beta-lactamase inhibitors” (priority 2014, dated 2017)

Assays:
IMP-1 = IMP-1 (Serratia marcescens, UniProt P52699); assay: Enzyme activity: determination of IC50, fluorescence assay with CCF2-FA substrate; type: biochemical; conditions: enzyme 2 pM, CCF2-FA 1.25 μM, 2 hours at 25° C.; read-out: IMP1 IC50
Method in brief: (§1)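 Enzyme at 1 pM (NDM-1), 2 pM (IMP-1) or 30 pM (VIM-1) was incubated with inhibitor (20 μM to 0.00063 μM) and 1.25 μM CCF2-FA in 100 mM KH2PO4 pH 7, 0.005% Tween-20, 10 μM ZnSO4 for 2 hours at 25° C. Fluorescence was read at ex 405/em 460 nm; IC50 from 4-parameter fit.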

NDM-1 = NDM-1 (Klebsiella pneumoniae, UniProt C7C422); assay: as above; type: biochemical; conditions: enzyme 1 pM, CCF2-FA 1.25 μM, 2 hours at 25° C.; read-out: NDM1 IC50
Method in brief: as §1

VIM-1 = VIM-1 (Pseudomonas aeruginosa, UniProt A0A0F7KYQ8); assay: as above; type: biochemical; conditions: enzyme 30 pM, CCF2-FA 1.25 μM, 2 hours at 25° C.; read-out: VIM1 IC50
Method in brief: as §1

[1] = test system: Escherichia coli expressing NDM-1 (CLB30005); assay: Antibiotic potentiation activity: synergistic concentration (MITC95) with imipenem, growth by OD600; type: cell-based; conditions: 95% inhibition of bacterial growth, strain CLB30005
Method in brief: (§2)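 Colonies from overnight agar plates (35 °C) were suspended in saline and diluted 1:100 into 1.1× CAMHB. Inhibitor (final 200 μM to 0.195 μM) was combined with imipenem at 1 or 4 μg/ml, incubated 22–24 h at 35 °C, and absorbance read; MITC95 is the lowest inhibitor concentration giving 95% growth inhibition.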

[2] = test system: Escherichia coli expressing NDM-1 (CLB30016); assay: as above; type: cell-based; conditions: 95% inhibition of bacterial growth, strain CLB30016
Method in brief: as §2

[3] = test system: Klebsiella pneumoniae expressing VIM-1 (IHMA599644); assay: as above; type: cell-based; conditions: 95% inhibition of bacterial growth, strain IHMA599644
Method in brief: as §2

[4] = test system: Serratia marcescens expressing IMP-1 (CL5741); assay: as above; type: cell-based; conditions: 95% inhibition of bacterial growth, strain CL5741
Method in brief: as §2

Chain of NDM-1 (C7C422 29-270, looked up, species assumed): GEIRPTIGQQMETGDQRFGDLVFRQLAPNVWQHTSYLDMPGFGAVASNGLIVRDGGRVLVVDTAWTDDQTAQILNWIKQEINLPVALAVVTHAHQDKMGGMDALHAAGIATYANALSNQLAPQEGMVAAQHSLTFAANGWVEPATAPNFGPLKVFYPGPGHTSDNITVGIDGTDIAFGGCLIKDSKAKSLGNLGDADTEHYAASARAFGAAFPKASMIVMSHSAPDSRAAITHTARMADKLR
Chain of IMP-1 (P52699 19-246, looked up, species assumed): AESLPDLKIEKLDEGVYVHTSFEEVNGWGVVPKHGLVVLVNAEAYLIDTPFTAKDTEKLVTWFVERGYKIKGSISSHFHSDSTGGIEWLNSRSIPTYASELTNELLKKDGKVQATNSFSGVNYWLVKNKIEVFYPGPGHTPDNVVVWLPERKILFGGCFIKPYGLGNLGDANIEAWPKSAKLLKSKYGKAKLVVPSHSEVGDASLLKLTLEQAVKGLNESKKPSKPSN

Row | SMILES | IC50 (IMP-1) | IC50 (NDM-1) | IC50 (VIM-1) | NDM1 EC30005 MITC95 [1] | NDM1 EC30016 MITC95 [2] | VIM1 KP599644 MITC95 [3] | IMP1 SM5741 MITC95 [4]
1 | CCC[C@H](C(=O)O)[C@H](Cc1ccc(-c2ccc(CN)cc2)cc1)c1nn[nH]n1 [Example 209, (2S)-2-[(1S)-2-[4′-(aminomethyl)biphenyl-4-yl]-1-(2H-tetrazol-5-yl)ethyl]pentanoic acid] | 110 nM | 84 nM | 14 nM | 2.3 µM | 6.2 µM | 12.5 µM | 4.3 µM
2 | CCC[C@H](C(=O)O)[C@H](Cc1ccc(-c2ccc(N3CCNCC3)nc2)cc1)c1nn[nH]n1 [Example 199, (2S)-2-[(1S)-2-[4-(6-piperazin-1-ylpyridin-3-yl)phenyl]-1-(2H-tetrazol-5-yl)ethyl]pentanoic acid] | 110 nM | 48 nM | 7.4 nM | 4.7 µM | 9.4 µM | 31 µM | 17 µM
3 | CCC[C@H](C(=O)O)[C@H](Cc1ccc(-c2cccc(OC3CCNCC3)n2)cc1)c1nn[nH]n1 [Example 194, (2S)-2-[(1S)-2-{4-[6-(piperidin-4-yloxy)pyridin-2-yl]phenyl}-1-(2H-tetrazol-5-yl)ethyl]pentanoic acid] | 640 nM | 170 nM | 6.7 nM | 27 µM |  | 50 µM | 75 µM
4 | CCCC[C@@H](C(=O)O)[C@@H](Cc1ccc(-c2ccccc2)cc1)c1nn[nH]n1 [Example 188, (2R)-2-[(1R)-2-biphenyl-4-yl-1-(2H-tetrazol-5-yl)ethyl]hexanoic acid] | 140 nM | 640 nM | 180 nM | >200 µM |  | >200 µM | 53 µM
5 | CCC[C@H](C(=O)O)[C@H](Cc1ccc(-c2cnc(N(C)S(C)(=O)=O)nc2)cc1)c1nnn[nH]1 [Example 242, (2S)-2-[(1S)-2-(4-{2-[methyl(methyl-sulfonyl)amino]pyrimidin-5-yl}phenyl)-1-(1H-tetrazol-5-yl)ethyl]pentanoic acid] | 70 nM | 9.3 nM | 1.6 nM | 38 µM |  | 100 µM | 12.5 µM
6 | CCC[C@H](C(=O)O)[C@H](Cc1ccc(-c2ccc3ncnn3c2)cc1)c1nnn[nH]1 [Example 241, (2S)-2-[(1S)-1-(1H-tetrazol-5-yl)-2-(4-[1,2,4]triazolo[1,5-a]pyridin-6-ylphenyl)ethyl]pentanoic acid] | 58 nM | 13 nM | 0.64 nM | 75 µM |  | 38 µM | 9.4 µM
7 | CC[C@H](C(=O)O)[C@H](Cc1ccccc1)c1nnn[nH]1 [Example 8, (2S,3S)-2-ethyl-4-phenyl-3-(1H-tetrazol-5-yl)butanoic acid] | 1800 nM | 81 nM | 21 nM | 9.4 µM |  | 62.5 µM | 125 µM
8 | CCC[C@H](C(=O)O)[C@H](Cc1ccc(Br)nc1)c1nnn[nH]1 [Example 143] | 1700 nM | 53 nM | 2.6 nM | 12.5 µM |  | 100 µM | >200 µM
